# Results published in ChEMBL document CHEMBL1687691, “From taxuspine x to structurally simplified taxanes with remarkable p-glycoprotein inhibitory activity” (ACS Med Chem Lett, 2010).
# Assays:
# [1] = biological target: T1, ATP-dependent translocase ABCB1 (Homo sapiens, UniProt P08183); experiment: Inhibition of human MDR1 expressed in mouse L5178 cells assessed as increase in intracellular accumulation of rhodamine 123 AT 0.1 mM by FACSCalibur flow cytometry; assay type: cell-based; settings: l5178, 100 µM
# [2] = biological target: T1, ATP-dependent translocase ABCB1; experiment: Inhibition of human MDR1 expressed in mouse L5178 cells assessed as increase in intracellular accumulation of rhodamine 123 by FACSCalibur flow cytometry; assay type: cell-based
# T1 sequence (P08183 whole entry): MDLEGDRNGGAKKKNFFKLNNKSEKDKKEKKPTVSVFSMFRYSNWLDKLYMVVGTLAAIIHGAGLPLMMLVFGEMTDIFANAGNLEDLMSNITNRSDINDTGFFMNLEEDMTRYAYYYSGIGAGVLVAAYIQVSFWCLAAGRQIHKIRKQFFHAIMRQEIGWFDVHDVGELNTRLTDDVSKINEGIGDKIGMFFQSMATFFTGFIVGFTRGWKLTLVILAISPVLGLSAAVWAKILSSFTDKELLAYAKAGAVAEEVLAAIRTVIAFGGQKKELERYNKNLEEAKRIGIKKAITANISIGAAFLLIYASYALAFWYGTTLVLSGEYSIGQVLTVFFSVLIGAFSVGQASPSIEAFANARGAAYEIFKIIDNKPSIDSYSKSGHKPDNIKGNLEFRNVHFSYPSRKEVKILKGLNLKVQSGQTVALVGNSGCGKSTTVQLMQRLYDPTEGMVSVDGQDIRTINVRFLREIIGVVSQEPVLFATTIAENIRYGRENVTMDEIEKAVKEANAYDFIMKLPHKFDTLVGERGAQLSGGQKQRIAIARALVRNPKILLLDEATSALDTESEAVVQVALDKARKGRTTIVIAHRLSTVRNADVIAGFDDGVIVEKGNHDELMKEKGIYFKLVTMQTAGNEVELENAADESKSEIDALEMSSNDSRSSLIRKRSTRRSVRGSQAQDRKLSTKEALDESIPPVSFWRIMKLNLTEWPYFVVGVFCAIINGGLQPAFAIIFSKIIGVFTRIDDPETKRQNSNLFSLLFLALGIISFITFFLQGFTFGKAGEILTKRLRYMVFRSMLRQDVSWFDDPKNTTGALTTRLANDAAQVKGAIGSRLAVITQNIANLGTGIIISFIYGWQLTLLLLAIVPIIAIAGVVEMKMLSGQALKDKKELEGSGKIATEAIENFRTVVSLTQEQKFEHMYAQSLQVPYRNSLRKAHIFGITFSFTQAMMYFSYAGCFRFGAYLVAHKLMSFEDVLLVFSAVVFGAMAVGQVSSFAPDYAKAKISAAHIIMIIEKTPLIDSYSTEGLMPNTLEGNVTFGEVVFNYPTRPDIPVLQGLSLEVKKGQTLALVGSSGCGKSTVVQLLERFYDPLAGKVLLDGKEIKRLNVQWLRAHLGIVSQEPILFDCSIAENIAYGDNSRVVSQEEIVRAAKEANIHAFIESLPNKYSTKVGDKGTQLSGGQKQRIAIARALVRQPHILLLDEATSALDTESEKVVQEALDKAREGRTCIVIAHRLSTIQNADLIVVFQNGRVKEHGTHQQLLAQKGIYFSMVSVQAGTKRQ
Alpha max [1],IC50 [2] [µM],Structure (SMILES)
0.37,,COCCOCO[C@@H]1/C=C\COC(=O)/C=C/[C@@H](OC)[C@@H]2CCC(C)=C1C2(C)C
1,7.2,COCCOCO[C@@H]1/C=C\COC(=O)/C=C/[C@@H](OC)[C@@H]2C[C@@H](OC(=O)c3ccccc3)C(C)=C1C2(C)C
1,24,COCCOCO[C@@H]1/C=C\C(OC(C)=O)C(OC(C)=O)/C=C/[C@@H](OC)[C@@H]2CCC(C)=C1C2(C)C (stereo not given in full)
